Experimental data from patent EP4744665A1, “COMBINATION OF POLQ INHIBITOR COMPOUND AND ANTI-CANCER THERAPEUTIC AGENT OR RADIOTHERAPY” (Simcere Zaiming Pharmaceutical Co., Ltd., priority 2023, dated 2025).

How the values were obtained:
Assay in all cases: Combined use with combination drug, matrix study, Bliss Independence model (Cell Titer Glo, 7 days)
A2780 = format: cell-based, human
Description: (§1) DLD-1 colorectal adenocarcinoma cells, DLD-1 BRCA2 (-/-) colorectal adenocarcinoma cells, SHP-77 human small cell lung cancer cells, NCI-H82 human small cell lung cancer cells, LNCAP prostate cancer cells, KURAMOCHI human ovarian cancer cells, A2780 human ovarian cancer cells, and NCI-H23 non-small cell lung cancer cells were cultured in a 1640 medium containing 10% fetal bovine serum. SKOV3 human ovarian cancer cells were cultured in a McCoy's 5A (modified) medium containing 10% fetal bovine serum. OVCAR3 ovarian cancer cells were cultured in a 1640 medium containing 20% fetal bovine serum and 10 µg/mL bovine insulin. MDA-MB-436 breast cancer cells (natural BRCA1 mutation) and A549 non-small cell lung cancer cells were cultured in a DMEM medium containing 10% fetal bovine serum. Capan-1 human pancreatic cancer cells (natural BRCA2 mutation) were cultured in an IMDM medium containing 20% fetal bovine serum. The cells were all cultured at 37 °C with 5% CO2. Cells at the logarithmic growth phase were available for the experiment.
(§2) 100 µL of the cell medium was added to rows A and H and columns 1 and 12 of a 96-well cell culture plate. Cultured cells were resuspended (adherent cells were digested with trypsin) and counted to give information on cell density and viability. The dilution ratio of the resuspended cells required for inoculating a fixed number of cells into 80 µL of the medium in each culture well was calculated based on the cell density information. After the resuspended cells were diluted with the corresponding medium, 80 µL of the diluted cells were transferred to columns 2-11 of rows B-G of a 96-well cell culture plate using an Eppendorf multi-channel pipette (60 wells in total for each plate). The cell culture plate was incubated overnight in an incubator at 37 °C with 5% CO2.
(§3) The test compound and the combination compound were dissolved in DMSO to give a 10 mM solution for later use. In the experiment, the compound was further diluted to the corresponding concentration according to the concentration designed in the experiment, and based on this concentration, serial gradient dilution was performed. Matrix study was performed at 8 or 7 dose concentrations of the test compound (the lowest dose concentration was 0, and other specific concentration values were shown in FIG. 1) and 7 or 8 dose concentrations of the combination compound (the lowest dose concentration was 0, and other specific concentration values were shown in FIG. 1). 10 µL of each of the diluted combination compound and test compound was added to the corresponding cell plate well, such that the final concentration of DMSO was 0.25%. The test compound and the cells were incubated in an incubator at 37 °C with 5% CO2 for another 7 days, Cell Titer Glo was added at 50 µL/well, and the luminescence value of each well was read using an Envision microplate reader.
(§4) The luminescence value of the well containing only the cell medium was taken as the background (RLUbackground, corresponding cell survival rate to be 0%), the cell well containing only 0.25% DMSO without the compound was taken as the maximum signal (RLUDMSO, corresponding cell survival rate to be 100%), and the luminescence values of the remaining wells containing cells and compounds at different concentrations were taken as RLUsample. The survival rate of each cell well was calculated as follows: Survival rate (%) = (RLUsample−RLUbackground)/(RLUDMSO−RLUbackground) × 100% [formula]
(§5) The interaction between drugs (synergistic, independent, or antagonistic) was statistically analyzed by the Bliss Independence model using Combenefit software (Bliss, C.I., Bacteriol. Rev., 1956, 20, 243-258). The model assumes that each drug acts independently. The theoretical expected action curve of the combination was calculated from the following equation: Bliss effect = effect A + effect B−effect A × effect B [formula] wherein effect A and effect B are the effects of drugs A and B alone at specific concentrations. […]

Capan-1 = format: cell-based, human
Description: as §1, §2, §3, §4, §5

NCI-H82 = format: cell-based, human; conditions: combination with Etoposide (Topoisomerase II inhibitor)
Description: as §1, §2, §3, §4, §5

SKOV3 = format: cell-based, human
Description: as §1, §2, §3, §4, §5

KURAMOCHI = format: cell-based, human
Description: as §1, §2, §3, §4, §5

A549 = format: cell-based
Description: as §1, §2, §3, §4, §5

MDA-MB-436 = format: cell-based
Description: as §1, §2, §3, §4, §5

OVCAR3 = format: cell-based
Description: as §1, §2, §3, §4, §5

DLD1 = format: cell-based; conditions: combination with SN38 (Topoisomerase I inhibitor)
Description: as §1, §2, §3, §4, §5

NCIH23 = format: cell-based
Description: as §1, §2, §3, §4, §5

DLD-1 BRCA2 (-/-) = format: cell-based
Description: as §1, §2, §3, §4, §5

[1] = combination with Doxorubicin hydrochloride (Topoisomerase II inhibitor)
[2] = combination with Etoposide (Topoisomerase II inhibitor)
[3] = combination with Paclitaxel (Tubulin inhibitor)
[4] = combination with Niraparib (PARP inhibitor)
[5] = combination with Olaparib (PARP inhibitor)
[6] = combination with RP3500 (ATR inhibitor)
[7] = combination with Talazoparib (PARP inhibitor)
[8] = combination with AZD5305 (PARP inhibitor)

Measured: Combined effect

COc1ccc(Cl)cc1-c1cc(C)ncc1C(=O)Nc1nc2ncc(-c3ccc(C#N)cc3)nc2s1.[Na] [Sodium salt of compound I, Sodium Salt of 4-(5-Chloro-2-methoxyphenyl)-N-[6-(4-cyanophenyl)thiazolo[4,5-b]pyrazin-2-yl]-6-methylnicotinamide]
Synergistic: A2780; [1] | A2780; [2] | A2780; [3] | Capan-1; [4] | Capan-1; [5] | Capan-1; [6] | Capan-1; [7] | NCI-H82 | SKOV3; [1] | SKOV3; [3] | KURAMOCHI; [1] | KURAMOCHI; [3] | A549; combination with Cisplatin (Platinum derivative) | A549; [2] | MDA-MB-436; [8] | MDA-MB-436; combination with AZD7648 (DNA-PK inhibitor) | MDA-MB-436; [4] | MDA-MB-436; [5] | OVCAR3; combination with Carboplatin (Platinum derivative) | OVCAR3; [4] | OVCAR3; [5] | OVCAR3; [7] | DLD1 | NCIH23; [6] | NCIH23; [7] | DLD-1 BRCA2 (-/-); [8] | DLD-1 BRCA2 (-/-); [4]
